These results are taken from patent US20220389515A1, “USE OF BIOMARKERS TO PREDICT CLINICAL SENSITIVITY TO 2-(4-CHLOROPHENYL)-N-((2-(2,6-DIOXOPIPERIDIN-3-YL)-1-OXOISOINDOLIN-5-YL)METHYL)-2,2-DIFLUOROACETAMIDE” (priority 2019, published 2022).

One assay relates to U937 GCN2-/- cells. Put plainly: Immunoblot and proliferation (CTG, day 3) of U937 GCN2-/- cells re-expressing GCN2. The assay is classed as cell-based, human. The following applies: not with mutants T899A/T904A, K619R, F1143L/R1144L. As to the method:
The U937 GCN2−/− cell line is derived from a single clone of U937 parental cells stably infected with a lentiviral CRISPR vector targeting GCN2. […] Cells were incubated with DMSO or 200 nM Compound D and lysed at the indicated time points. Arrows pointing to bands in the blot on the right designate the cleaved forms of caspase-3. […] The U937 GCN2−/− cell line is derived from a single clone of U937 parental cells stably infected with a lentiviral CRISPR vector targeting GCN2. […] Cells were treated with DMSO or Compound D for 24 hours. On day 3 after Compound D treatment, cell proliferation was assessed by CTG. Result shown in all figure panels is representative of at least three biological replicates. Data in FIGS. 13C, 13D and 13E are shown as mean±SD, n=3 technical replicates.
To determine if the activation of the ISR by Compound D is solely mediated by GCN2, the effect of GCN2 ablation on Compound D response was evaluated.

In the next assay the test system is U937 and OCI-AML2 cells. Nature of the assay: Flow cytometry-based CRISPR competition assay (RFP+/GFP+ ratio). The format is cell-based, human. The procedure: To investigate the role of the mTOR signaling pathway in mediating Compound D sensitivity, a CRISPR competition assay was performed (see FIG. 6A). U937 cells stably expressing Cas9 were infected with a lentiviral vector expressing GFP and non-targeting sgRNA (sgNT), or lentiviral vectors expressing RFP and non-targeting sgRNA (sgNT), or lentiviral vectors expressing RFP and sgRNAs targeting MTOR, RICTOR or RAPTOR. Cells were then treated with DMSO or 100 nM Compound D. The RFP+/GFP+ ratio was monitored by flow cytometry every 2-3 days thereafter.
Next, CRISPR competition assays were conducted in U937 and OCI-AML2 cells as described above. Specifically, U937 cells stably expressing Cas9 were infected with lentiviral vector constitutively expressing GFP and non-targeting sgRNA (sgNT), or with lentiviral vectors constitutively expressing RFP and non-targeting sgRNA (sgNT) or sgRNAs targeting TSC1 or TSC2. Three days after infection, RFP and GFP cells were mixed at a 1:1 ratio and treated with DMSO, 1 μM Compound D, or 10 μM Compound D. The change of RFP+/GFP+ ratio was monitored by flow cytometry every 2-3 days thereafter. Similarly, OCI-AML2 cells stably expressing Cas9 were infected with lentiviral vector constitutively expressing GFP and non-targeting sgRNA (sgNT), or with lentiviral vectors constitutively expressing RFP and non-targeting sgRNA (sgNT) or sgRNAs targeting TSC1 or TSC2. Three days after infection, RFP and GFP cells were mixed at a 1:1 ratio and treated with DMSO, 0.1 μM Compound D, or […] Compound D. The change of RFP+/GFP+ ratio was monitored by flow cytometry every 2-3 days thereafter.
A CRISPR competition assay was performed as shown in the upper panel of FIG. 5A, and similarly to the assay described above. U937 cells stably expressing Cas9 were infected with a lentiviral vector constitutively expressing GFP and non-targeting sgRNA (sgNT), or with lentiviral vectors constitutively expressing RFP and non-targeting sgRNA (sgNT) or sgRNAs targeting GCN2. On day 2, RFP and GFP cells were mixed at a 1:1 ratio and treated with DMSO or 100 nM Compound D. The change of RFP+/GFP+ ratio was monitored by flow cytometry every 2-3 days thereafter.
Next, CRISPR competition assays were conducted in U937 and OCI-AML2 cells as described above. Specifically, U937 and OCI-AML2 cell lines were transduced with plenti-EF1á-Cas9-P2A-Blast, followed by Blasticidin selection to establish Cas9-expressing cell lines. U937-Cas9 and OCI-AML2-Cas9 cells were then transduced with pRSG17-U6-sgNT-1-UbiC-TagGFP2-2A-Puro, or pRSG16-U6-UbiC-TagRFP-2A-Puro vectors expressing sgNT-1, sgNC-1, sgNC-8 or gene-specific sgRNAs. Transduced cells were washed with 1×PBS 72 hours post-transduction. Cells were assessed for transduction via RFP or GFP fluorescence reporter expression. Once fluorescence reporter expression was confirmed, RFP- and GFP-transduced cells were mixed at a 1:1 ratio and seeded in 2 ml culture media per well in 12-well tissue culture plates at a cell density of 200,000 cells per mL, and treated with DMSO or an appropriate dose of Compound. Remaining cells underwent puromycin selection for 3-7 days and were harvested for immunoblot analysis to confirm gene knock-out. After seeding cells for culture in 12-well plates, 100 iL cell culture per well was removed for flow cytometric analysis as the baseline “Day 0” RFP- and GFP-positive percentages in each well. […]
Background: In flow cytometry, cells or beads pass a laser one at a time.

SMILES strings stand for the structures. Entries after “also recorded” stand apart in the source; their conditions may differ.

For the molecule `O=C1CCC(N2Cc3cc(CNC(=O)C(F)(F)c4ccc(Cl)cc4)ccc3C2=O)C(=O)N1` (stereo not drawn) [Compound D, 2-(4-chlorophenyl)-N-((2-(2,6-dioxopiperidin-3-yl)-1-oxoisoindolin-5-yl)methyl)-2,2-difluoroacetamide], in the assay with U937 GCN2-/- cells, the “response after reintroduction of GCN2 wild-type” value is recorded as “significantly restored the response to Compound D”. The “response after TSC1 or TSC2 knockout” value in the assay with U937 and OCI-AML2 cells (U937 1 μM or 10 μM, OCI-AML2 0.1 μM or 1 μM) is reported as “conferred a growth advantage in the presence of, but not in the absence of, Compound D; also recorded: increased resistance to Compound D”. Further, the “growth inhibition after loss of GCN1, GCN2, ATF4 or DDIT4” value in the assay with U937 and OCI-AML2 cells (U937 (10 μM) and OCI-AML2) is “protected the cells against Compound D-induced growth inhibition”. Besides, in the assay with U937 and OCI-AML2 cells (U937, 100 nM), the “response of cells lacking GCN2” value was “resistant to Compound D”; the “sensitivity after knockout of mTOR, Raptor and Rictor” value was “enhances U937 sensitivity to Compound D”. In the assay with U937 and OCI-AML2 cells (U937 and OCI-AML2), the “response after ILF2 or ILF3 knockout” value is given as “led to Compound D resistance”.
